# Experiments:
# blood sugar level [1] = assay: Glucose tolerance test in normal rats (oral compound, glucose load 1 hour later); type: in vivo, normal rat; settings: for Glucose Tolerance Improving Activity / Blood Glucose Level, 0 min / Blood Glucose Level, 15 min / Blood Glucose Level, 30 min / Blood Glucose Level, 60 min / Blood Glucose Level, 90 min / Blood Glucose Level, before glucose load (-60 min.): glucose 2 g/kg; for Glucose Tolerance Improving Activity: sum of increments at 15, 30, 60, 90 min vs control, 100 = no improvement
# Procedure: (§1) One index for the treatment of diabetes is to improve this glucose tolerance. The compound of the present invention was orally administered to normal rats, Streptozotocin-induced mildly diabetic rats and AYKK-mice, and thereafter glucose was administered intraperitoneally 1 hour later, and the glucose tolerance was examined. […] Further, a lowering of blood sugar in the glucose tolerance test using normal rats was examined with the passage of time, and the results obtained are given in Table 1 below.
# (§2) A sample aqueous solution or suspension was orally administered to the test animals which had been fasted for 24 hours and one hour later glucose was intraperitoneally or subcutaneously administered to the test animals. Thereafter, blood was sampled from the tail vein with the passage of time in order to determine the blood sugar level by the glucose-oxidase method.
# blood sugar level [2] = assay: Blood sugar lowering activity, fasted rat; type: in vivo
# Procedure: (§3) The compounds of the present invention were orally administered to normal rats, mice, dogs and hereditary diabetic mice(AYKK-mice), and the blood sugar lowering activity was examined.
# (§4) Test animals which were used included animals which had been fasted for 24 hours to achieve an empty stomach, and animals which had been fed to achieve a full stomach without any restriction of diet. A sample aqueous solution or suspension was orally administered, and blood was sampled with the passage of time from the tail vein or the cephalic vein in order to determine the level of blood sugar by the glucose-oxidase method.
# blood sugar level [3] = assay: Blood sugar lowering activity, fed mouse; type: in vivo
# Procedure: as §3, §4
# blood sugar level [4] = assay: Blood sugar lowering activity, fasted beagle; type: in vivo, beagle dog; settings: 25 mg/kg PO
# Procedure: as §3, §4
# blood sugar level [5] = assay: Blood sugar lowering activity, fed AγKK (AYKK) mouse, hereditary diabetic; type: in vivo; settings: for Blood Sugar Level (control = 100), 1 Hr / Blood Sugar Level (control = 100), 2 Hrs / Blood Sugar Level (control = 100), 3 Hrs / Blood Sugar Level (control = 100), 5 Hrs: fed AγKK mouse
# Procedure: as §3, §4
# blood sugar level [6] = assay: Glucose tolerance test in AYKK mice; type: in vivo, AYKK mouse; settings: glucose 1 g/kg, sum of increments at 15, 30, 60, 90 min vs control, 100 = no improvement
# Procedure: as §1, §2
# *5AYKK-mouse was obtained by mating a yellow mouse having symptoms of […]
# [7] = system: blood platelet aggregation induced by collagen in rat platelet rich plasma; assay: Blood platelet aggregation inhibiting activity (collagen induced, in vitro); type: cell-based; settings: read-out: Platelet Aggregation Inhibition Activity, ID50
# Procedure: It is generally said that blood platelet aggregability is accelerated in a diabetes patient and that this secondarily causes blood vessel disorders. […] Thus, based on this the compounds of the present invention are expected to be useful in preventing and improving the secondary vasular lesions of diabetes mellitus.
# Citrated rat blood was centrifuged in order to obtain platelet rich plasma, and to 0.4 ml of this plasma was added 50 μl of sample solution. To the resulting solution was added 50 μl of collagen suspension under stirring, and platelet aggregation reaction was determined according to the method of Born [Nature, Vol. 194, pp. 927 (1962)]. The concentration of the sample (ID50) which inhibits 50% of the aggregation reaction of the control without the test sample added is shown in Table 6 below.
# Acute toxicity (rat) = settings: in vivo, read-out: Acute Toxicity (rat) ID50
# serum lactate level = assay: Influence on serum lactate level, repeated administration for 4 days; type: in vivo, normal rat
# Procedure: The biguanide drugs heretofore used as a treatment for diabetes are said undesirably to cause acidosis due to an increase of serum lactate level when such drugs are repeatedly administered. The compounds of the present invention were repeatedly administered for 4 days to normal rats and the serum lactate level was determined every day to compare such with the administration of phenformine which is one example of a biguanide drug.
# Compound A was repeatedly administered for 4 days to normal rats in a dosage of 200 mg/kg/day, and blood was sampled with the passage of time in order to determine the serum lactate level.
# blood sugar level [8] = assay: Glucose tolerance test in streptozotocin-induced mildly diabetic rats; type: in vivo, rat (Wistar strain); settings: 20 mg/kg PO; glucose 1 g/kg; sum of increments at 15, 30, 60, 90 min vs control; 100 = no improvement
# Procedure: as §1, §2
# *4The streptozotocin-induced mildly diabetic rats were produced by […]
# blood insulin [9] = assay: Insulin releasing action, fed rats; type: in vivo, rat; settings: 50 mg/kg iv
# Procedure: (§5) Among the test animals fed rats were anesthetized by administration of pentobarbital (40 mg/kg, ip), and administered, intravenously with an isotonic sodium chloride solution of Compound A. An aqueous solution of the sample was orally administered to fed mice. In both cases blood was sampled from the tail vein with the passage of time, and the blood insulin was determined by the radioimmunoassay method of Morgen et al [Diabetes, Vol. 12, pp 115 (1963)]. At the same time blood sugar was also determined. […] The amount of insulin released in Table 4 was obtained by determining the difference between the blood insulin level at 5 points (5, 10, 20, 30, 40 minutes) during a 40 minute period after administration of the sample in the case of rats or 3 points (0.5, 1.0, 2.0 hours) during a 2 hour period after administration of the sample in the case of mice and the blood insulin level at 0 minute just before administration of the sample and then by summing up these differences.
# blood insulin [10] = assay: Insulin releasing action, fed mice; type: in vivo, mouse
# Procedure: as §5
smiles,measurement,setting,value
"c1ccc(C(CC2=NCCN2)c2ccccn2)cc1 (stereo not shown) [Compound B, 2-[2-phenyl-2-(2-pyridyl)]ethylimidazoline]",Glucose Tolerance Improving Activity,blood sugar level [1]; 10 mg/kg PO,22.0%
same,"Blood Glucose Level, 0 min",blood sugar level [1]; 10 mg/kg,74 ± 3 mg/dL
same,"Blood Glucose Level, 15 min",blood sugar level [1]; 10 mg/kg,91 ± 9 mg/dL
same,"Blood Glucose Level, 30 min",blood sugar level [1]; 10 mg/kg,91 ± 5 mg/dL
same,"Blood Glucose Level, 60 min",blood sugar level [1]; 10 mg/kg,79 ± 4 mg/dL
same,"Blood Glucose Level, 90 min",blood sugar level [1]; 10 mg/kg,68 ± 5 mg/dL
same,"Blood Glucose Level, before glucose load (-60 min.)",blood sugar level [1]; 10 mg/kg,90 ± 2 mg/dL
same,blood sugar level maintained after glucose load,"blood sugar level [1]; normal rats, Table 1, in words",maintains the blood sugar level in the range of the fasting blood sugar level
same,rise in blood sugar level due to the glucose load,"blood sugar level [1]; normal rats, Table 1, in words",scarcely any rise in blood sugar level
same,"Blood Sugar Level (control = 100), 1 Hr",blood sugar level [2]; 10 mg/kg PO,71%
same,"Blood Sugar Level (control = 100), 2 Hrs",blood sugar level [2]; 10 mg/kg PO,67%
same,"Blood Sugar Level (control = 100), 3 Hrs",blood sugar level [2]; 10 mg/kg PO,58%
same,"Blood Sugar Level (control = 100), 5 Hrs",blood sugar level [2]; 10 mg/kg PO,73%
same,"Blood Sugar Level (control = 100), 1 Hr",blood sugar level [2]; 25 mg/kg PO,83%
same,"Blood Sugar Level (control = 100), 2 Hrs",blood sugar level [2]; 25 mg/kg PO,68%
same,"Blood Sugar Level (control = 100), 3 Hrs",blood sugar level [2]; 25 mg/kg PO,68%
same,"Blood Sugar Level (control = 100), 5 Hrs",blood sugar level [2]; 25 mg/kg PO,76%
same,"Blood Sugar Level (control = 100), 1 Hr",blood sugar level [3]; 25 mg/kg PO,77%
same,"Blood Sugar Level (control = 100), 2 Hrs",blood sugar level [3]; 25 mg/kg PO,68%
same,"Blood Sugar Level (control = 100), 3 Hrs",blood sugar level [3]; 25 mg/kg PO,78%
same,"Blood Sugar Level (control = 100), 5 Hrs",blood sugar level [3]; 25 mg/kg PO,86%
same,"Blood Sugar Level (control = 100), 1 Hr",blood sugar level [4]; 1 h,76%
same,"Blood Sugar Level (control = 100), 2 Hrs",blood sugar level [4]; 2 h,58%
same,"Blood Sugar Level (control = 100), 3 Hrs",blood sugar level [4]; 3 h,70%
same,"Blood Sugar Level (control = 100), 5 Hrs",blood sugar level [4]; 5 h,71%
same,"Blood Sugar Level (control = 100), 1 Hr",blood sugar level [5]; 25 mg/kg PO,77%
same,"Blood Sugar Level (control = 100), 2 Hrs",blood sugar level [5]; 25 mg/kg PO,75%
same,"Blood Sugar Level (control = 100), 3 Hrs",blood sugar level [5]; 25 mg/kg PO,72%
same,"Blood Sugar Level (control = 100), 5 Hrs",blood sugar level [5]; 25 mg/kg PO,78%
same,Glucose Tolerance Improving Activity,blood sugar level [6]; 25 mg/kg PO,62.7%
same,IC50,[7],300 µM
same,LD50,Acute toxicity (rat),867 mg/kg
[H]/N=C(/N)N/C(=N/[H])NCCc1ccccc1 [Phenformin],"Serum Lactate Level, 0 Day","serum lactate level; 0 Day, Compound A 200 mg/kg/day (phenformin dose not given)",1.061±0.099 μ mol/ml
same,"Serum Lactate Level, After 1 Day","serum lactate level; After 1 Day, Compound A 200 mg/kg/day (phenformin dose not given)",2.086±0.066 μ mol/ml
same,"Serum Lactate Level, After 4 Days","serum lactate level; After 4 Days, Compound A 200 mg/kg/day (phenformin dose not given)",3.009±0.641 μ mol/ml
same,increase in serum lactate level,"serum lactate level; repeated administration for 4 days, normal rats, in words",remarkable increase in serum lactate level
"CCCCNC(=O)NS(=O)(=O)c1ccc(C)cc1 [Tolbutamide, reference compound]",Glucose Tolerance Improving Activity,blood sugar level [1]; 20 mg/kg PO,64.5%
same,"Blood Glucose Level, 0 min",blood sugar level [1]; 20 mg/kg,79 ± 2 mg/dL
same,"Blood Glucose Level, 15 min",blood sugar level [1]; 20 mg/kg,121 ± 5 mg/dL
same,"Blood Glucose Level, 30 min",blood sugar level [1]; 20 mg/kg,114 ± 5 mg/dL
same,"Blood Glucose Level, 60 min",blood sugar level [1]; 20 mg/kg,98 ± 5 mg/dL
same,"Blood Glucose Level, 90 min",blood sugar level [1]; 20 mg/kg,90 ± 4 mg/dL
same,"Blood Glucose Level, before glucose load (-60 min.)",blood sugar level [1]; 20 mg/kg,80 ± 2 mg/dL
same,"Blood Sugar Level (control = 100), 1 Hr",blood sugar level [2]; 10 mg/kg PO,96%
same,"Blood Sugar Level (control = 100), 2 Hrs",blood sugar level [2]; 10 mg/kg PO,89%
same,"Blood Sugar Level (control = 100), 3 Hrs",blood sugar level [2]; 10 mg/kg PO,92%
same,"Blood Sugar Level (control = 100), 5 Hrs",blood sugar level [2]; 10 mg/kg PO,91%
same,"Blood Sugar Level (control = 100), 1 Hr",blood sugar level [2]; 25 mg/kg PO,90%
same,"Blood Sugar Level (control = 100), 2 Hrs",blood sugar level [2]; 25 mg/kg PO,80%
same,"Blood Sugar Level (control = 100), 3 Hrs",blood sugar level [2]; 25 mg/kg PO,76%
same,"Blood Sugar Level (control = 100), 5 Hrs",blood sugar level [2]; 25 mg/kg PO,82%
same,"Blood Sugar Level (control = 100), 1 Hr",blood sugar level [3]; 50 mg/kg PO,95%
same,"Blood Sugar Level (control = 100), 2 Hrs",blood sugar level [3]; 50 mg/kg PO,92%
same,"Blood Sugar Level (control = 100), 3 Hrs",blood sugar level [3]; 50 mg/kg PO,74%
same,"Blood Sugar Level (control = 100), 5 Hrs",blood sugar level [3]; 50 mg/kg PO,96%
same,"Blood Sugar Level (control = 100), 1 Hr",blood sugar level [5]; 50 mg/kg PO,94%
same,"Blood Sugar Level (control = 100), 2 Hrs",blood sugar level [5]; 50 mg/kg PO,86%
same,"Blood Sugar Level (control = 100), 3 Hrs",blood sugar level [5]; 50 mg/kg PO,86%
same,"Blood Sugar Level (control = 100), 5 Hrs",blood sugar level [5]; 50 mg/kg PO,92%
same,effectiveness on AYKK-mice (blood sugar lowering),"blood sugar level [5]; oral, AYKK-mice, in words",uneffective
same,Glucose Tolerance Improving Activity,blood sugar level [8],67.4%
same,Glucose Tolerance Improving Activity,blood sugar level [6]; 50 mg/kg PO,69.6%
same,Blood Sugar Level,"blood insulin [9]; after 90 minutes, control = 100",56%
same,Amount of Insulin Released,"blood insulin [9]; sum of differences at 5, 10, 20, 30, 40 min",189±26 μunit/ml
same,Blood Sugar Level,"blood insulin [10]; fed mice, 50 mg/kg po, after 2 hours, control = 100",95.7%
same,Amount of Insulin Released,"blood insulin [10]; fed mice, 50 mg/kg po, sum of differences at 0.5, 1.0, 2.0 hours",-2.2±3.3 μunit/ml
same,insulin releasing action in mice,"blood insulin [10]; mice, in words",little action on insulin release

# — US4138491A, “Method for treating diabetes” (Daiichi Seiyaku Co., Ltd., priority 1976, dated 1979)
